Drawing on article PMC5466588 (Redox Biology, 2017), this text covers IC50 for one molecule.

For orientation: IC50 means the midpoint of a concentration-inhibition curve. High values mean lower potency, low ones higher potency.

Each structure is given as a SMILES string.

Common to all, as to experiment: Di-E-GSSG fluorescent reductase assay
Holding throughout (assay type): biochemical

In one assay the target is T1, ERp72 (Homo sapiens, UniProt P13667).
T1 sequence (P13667 21-645): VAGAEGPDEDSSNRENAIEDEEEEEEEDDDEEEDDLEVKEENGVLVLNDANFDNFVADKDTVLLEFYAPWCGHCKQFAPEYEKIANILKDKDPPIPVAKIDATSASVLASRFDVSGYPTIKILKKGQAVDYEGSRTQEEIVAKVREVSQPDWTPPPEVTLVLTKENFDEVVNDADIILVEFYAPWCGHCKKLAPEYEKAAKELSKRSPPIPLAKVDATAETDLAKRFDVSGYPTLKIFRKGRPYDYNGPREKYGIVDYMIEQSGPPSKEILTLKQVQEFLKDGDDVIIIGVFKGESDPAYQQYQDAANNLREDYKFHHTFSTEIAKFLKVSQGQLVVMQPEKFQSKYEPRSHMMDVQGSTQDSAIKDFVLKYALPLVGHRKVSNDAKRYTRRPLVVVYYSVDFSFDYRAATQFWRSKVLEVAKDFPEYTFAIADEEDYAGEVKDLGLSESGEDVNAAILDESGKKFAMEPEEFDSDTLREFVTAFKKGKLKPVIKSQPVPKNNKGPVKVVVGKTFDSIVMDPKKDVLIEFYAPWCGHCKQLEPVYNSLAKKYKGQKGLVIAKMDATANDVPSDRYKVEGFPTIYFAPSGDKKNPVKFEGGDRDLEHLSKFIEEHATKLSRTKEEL

The target in another assay is T2, ERp57 (Homo sapiens, UniProt P30101).
T2 sequence (P30101 25-505): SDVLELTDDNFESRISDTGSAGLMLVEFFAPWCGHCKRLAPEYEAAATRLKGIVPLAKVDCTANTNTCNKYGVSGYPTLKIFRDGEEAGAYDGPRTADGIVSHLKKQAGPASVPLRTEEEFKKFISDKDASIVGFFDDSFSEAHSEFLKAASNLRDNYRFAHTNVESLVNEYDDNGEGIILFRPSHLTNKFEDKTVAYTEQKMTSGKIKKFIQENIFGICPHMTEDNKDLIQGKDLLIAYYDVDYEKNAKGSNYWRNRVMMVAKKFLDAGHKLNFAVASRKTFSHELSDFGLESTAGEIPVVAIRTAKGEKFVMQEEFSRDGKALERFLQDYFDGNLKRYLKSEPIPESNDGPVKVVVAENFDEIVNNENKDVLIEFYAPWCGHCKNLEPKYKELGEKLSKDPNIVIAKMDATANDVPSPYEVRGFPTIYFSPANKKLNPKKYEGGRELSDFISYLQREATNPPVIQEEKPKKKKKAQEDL

The next assay has as its target T3, ERp5 (Homo sapiens, UniProt Q15084).
T3 sequence (Q15084 20-440): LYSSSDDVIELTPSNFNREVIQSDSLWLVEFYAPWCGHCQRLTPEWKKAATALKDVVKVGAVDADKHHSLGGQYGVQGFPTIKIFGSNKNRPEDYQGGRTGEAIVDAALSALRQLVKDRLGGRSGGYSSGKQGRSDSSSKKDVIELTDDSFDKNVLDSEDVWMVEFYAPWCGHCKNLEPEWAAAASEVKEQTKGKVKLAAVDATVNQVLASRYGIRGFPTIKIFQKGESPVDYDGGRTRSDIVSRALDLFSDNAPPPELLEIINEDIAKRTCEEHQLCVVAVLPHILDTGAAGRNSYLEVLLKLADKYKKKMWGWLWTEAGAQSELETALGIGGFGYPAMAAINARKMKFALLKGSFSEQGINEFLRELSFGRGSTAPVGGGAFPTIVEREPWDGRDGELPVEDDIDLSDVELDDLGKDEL

The target in assay [1] is protein disulfide isomerase (PDI) (Homo sapiens, UniProt P07237).
protein disulfide isomerase (PDI), sequence (P07237 18-508): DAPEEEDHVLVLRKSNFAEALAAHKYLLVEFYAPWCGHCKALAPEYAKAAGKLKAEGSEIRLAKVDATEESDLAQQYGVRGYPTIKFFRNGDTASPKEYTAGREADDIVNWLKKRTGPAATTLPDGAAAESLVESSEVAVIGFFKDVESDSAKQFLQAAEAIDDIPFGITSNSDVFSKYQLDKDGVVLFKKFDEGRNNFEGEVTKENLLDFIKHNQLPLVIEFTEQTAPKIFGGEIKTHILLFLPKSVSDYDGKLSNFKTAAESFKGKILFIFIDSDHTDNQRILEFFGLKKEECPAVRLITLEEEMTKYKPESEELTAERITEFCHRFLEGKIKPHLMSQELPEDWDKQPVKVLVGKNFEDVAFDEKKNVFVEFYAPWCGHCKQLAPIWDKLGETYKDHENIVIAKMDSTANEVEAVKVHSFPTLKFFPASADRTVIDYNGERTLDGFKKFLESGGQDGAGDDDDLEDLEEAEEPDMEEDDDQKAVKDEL

On to `COc1cc(/C=C/[N+](=O)[O-])ccc1OC(=O)c1cccc(Cl)c1Cl` [HPW-RX40, 2-Methoxy-4-[(E)-2-nitrovinyl]phenyl 2,3-dichlorobenzoate], for which the concentration for half-maximal inhibition (IC50) on ERp72 amounted to 18.8 µM; on ERp57 it was 4.3 µM; at ERp5, 2.6 µM; in assay [1] it was 1.45 µM.
